Molecules are shown by their SMILES. Where two headings read alike, the source gives them in different places. Bounds are passed on as bounds.

In assay [1] the test system is Mouse STC-1 cells. As to the kind of experiment: STC-1 GLP-1 assay (GLP-1 secretion). Type of assay: cell-based. A digest of the protocol:
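Mouse STC-1 cells were plated two days ahead in DMEM with 10% charcoal-dextran stripped FBS, then exposed to compound in HBSS with protease inhibitors, DPP-IV inhibitor and 0.1% fatty acid free BSA for 2 h at 37° C. Active GLP-1 in supernatant was quantified by HTRF; EC50 derived from 12-point half-log curves.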

Assay [2] deals with T1, human TGR5 receptor (Homo sapiens, UniProt Q8TDU6).
T1 construct: host or cells: CHO-K1 (hTGR5-CHO)
T1 sequence (Q8TDU6 1-330): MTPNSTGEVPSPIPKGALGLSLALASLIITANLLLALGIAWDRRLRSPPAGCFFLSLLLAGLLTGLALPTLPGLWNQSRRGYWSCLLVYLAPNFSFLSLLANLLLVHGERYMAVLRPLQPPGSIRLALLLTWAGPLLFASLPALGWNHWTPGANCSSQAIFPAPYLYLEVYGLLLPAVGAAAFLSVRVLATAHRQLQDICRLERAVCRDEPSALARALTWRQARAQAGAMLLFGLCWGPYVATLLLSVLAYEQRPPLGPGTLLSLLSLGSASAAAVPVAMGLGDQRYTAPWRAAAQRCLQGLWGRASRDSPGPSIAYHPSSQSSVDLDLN
As to the kind of experiment: Human TGR5 cAMP production assay (hTGR5-CHO cells, DiscoveRx cAMP XS+ kit). It counts as cell-based. To be noted: luminescent cAMP assay, read-out: Human TGR5 Lum. cAMP Activity (EC50). A digest of the protocol:
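CHO-K1 cells stably expressing hTGR5, in PBS with IBMX and cAMP antibody, treated with half-log compound dilutions for 1 h at room temperature. cAMP measured by enzyme-fragment complementation luminescence after overnight detection; EC50 values reported.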

The mark [3] stands for this setting: Mouse STC-1 cells, GLP-1 secretion, 2 h, read-out: Mouse STC-1 HTRF GLP-1 Activity (EC50).

For the compound `N#Cc1ccc(CCNC(=O)[C@@H]2CCN2c2cc(N3CCC(CCNC(=O)NCCOCCNC(=O)CS(=O)(=O)O)CC3)nc(C(F)(F)F)n2)cc1` [Compound 356, (S)-1-(1-(6-(2-((4-cyanophenethyl)carbamoyl)azetidin-1-yl)-2-(trifluoromethyl)pyrimidin-4-yl)piperidin-4-yl)-4,12-dioxo-8-oxa-3,5,11-triazatridecane-13-sulfonic acid], the EC50 is 100 to 999 nM in assay [1] (setting [3]) and less than 100 nM in assay [2].

On to `O=C(CCCC1CCN(c2cc(N3CCC[C@H]3C(=O)NCCc3ccc(C(F)(F)F)cc3)nc(C(F)(F)F)n2)CC1)NCCS(=O)(=O)O` [Compound 58, (S)-2-(4-(1-(2-(trifluoromethyl)-6-(2-((4-(trifluoromethyl)phenethyl)-carbamoyl)-pyrrolidin-1-yl)-pyrimidin-4-yl)piperidin-4-yl)butanamido)ethanesulfonic acid], for which the EC50 in assay [1] (setting [3]) and in assay [2] was less than 100 nM throughout.

`N#Cc1ccc(CCNC(=O)[C@@H]2CCCN2c2cc(N3CCC(CCC(=O)NCCS(=O)(=O)O)CC3)nc(C(F)(F)F)n2)cc1` [Compound 56, (S)-2-(3-(1-(6-(2-((4-cyanophenethyl)carbamoyl)pyrrolidin-1-yl)-2-(trifluoromethyl)pyrimidin-4-yl)piperidin-4-yl)propanamido)ethanesulfonic acid]: the EC50 is 100 to 999 nM in assay [1] (setting [3]) and less than 100 nM in assay [2].

In the case of `N#Cc1ccc(CCNC(=O)[C@@H]2CCN2c2cc(N3CCC(CCNC(=N)N)CC3)nc(C(F)(F)F)n2)cc1` [Compound 285, (S)-N-(4-cyanophenethyl)-1-(6-(4-(2-guanidinoethyl)piperidin-1-yl)-2-(trifluoromethyl)pyrimidin-4-yl)azetidine-2-carboxamide], the EC50 in assay [1] (setting [3]) and in assay [2] was less than 100 nM throughout.

Regarding `N#Cc1ccc(CCNC(=O)[C@@H]2CCCN2c2cc(N3CCC(CCNS(=O)(=O)CCNC(=O)[C@@H](N)CS(=O)(=O)O)CC3)nc(C(F)(F)F)n2)cc1` [Compound 125, (R)-2-amino-3-((2-(N-(2-(1-(6-((S)-2-((4-cyanophenethyl)carbamoyl)-pyrrolidin-1-yl)-2-(trifluoromethyl)-pyrimidin-4-yl)piperidin-4-yl)ethyl)sulfamoyl)ethyl)amino)-3-oxopropane-1-sulfonic acid], the EC50 was 100 to 999 nM in assay [1] (setting [3]) and less than 100 nM in assay [2].

As for `N#Cc1ccc(CCNC(=O)[C@@H]2CCCN2c2cc(N3CCC(CCCC(=O)NCC(=O)O)CC3)nc(C(F)(F)F)n2)cc1` [Compound 103, (S)-2-(4-(1-(6-(2-((4-cyanophenethyl)carbamoyl)pyrrolidin-1-yl)-2-(trifluoromethyl)pyrimidin-4-yl)piperidin-4-yl)butanamido)acetic acid], the EC50 in assay [1] (setting [3]) and in assay [2] was less than 100 nM throughout.

`N#Cc1ccc(CCNC(=O)[C@@H]2CCCN2c2cc(N3CCC(CCNC(=O)NCCC(=O)NCCS(=O)(=O)O)CC3)nc(C(F)(F)F)n2)cc1` [Compound 113, (S)-2-(3-(3-(2-(1-(6-(2-((4-cyanophenethyl)carbamoyl)pyrrolidin-1-yl)-2-(trifluromethyl)pyrimidin-4-yl)piperidin-4-yl)ethyl)ureido)-propanamido)-ethanesulfonic acid]: the EC50 was 100 to 999 nM in assay [1] (setting [3]) and less than 100 nM in assay [2].

Turning to `N#Cc1ccc(CCNC(=O)[C@@H]2CCCN2c2cc(N3CCC(CCCC(=O)NCCS(=O)(=O)O)CC3)cc(C(F)(F)F)n2)cc1` [Compound 199, (S)-2-(4-(1-(2-(2-((4-cyanophenethyl)carbamoyl)pyrrolidin-1-yl)-6-(trifluoromethyl)pyridin-4-yl)piperidin-4-yl)butanamido)ethanesulfonic acid], the EC50 in assay [1] (setting [3]) and in assay [2] was less than 100 nM each time.

Turning to `N#C/N=C(\NCCC(=O)O)NCCC1CCN(c2cc(N3CC[C@H]3C(=O)NCCc3ccc(C#N)cc3)nc(C(F)(F)F)n2)CC1` [Compound 351, (S,Z)-3-(2-cyano-3-(2-(1-(6-(2-((4-cyanophenethyl)carbamoyl)azetidin-1-yl)-2-(trifluoromethyl)pyrimidin-4-yl)piperidin-4-yl)ethyl)guanidino)propanoic acid], the EC50 in assay [1] (setting [3]) and in assay [2] was less than 100 nM each time.

Consider `N#Cc1ccc(CCNC(=O)[C@@H]2CCN2c2cc(N3CCC(CCCC(=O)NCCS(=O)(=O)O)CC3)nc(C(F)(F)F)n2)cc1` [Compound 249, (S)-2-(4-(1-(6-(2-((4-cyanophenethyl)carbamoyl)azetidin-1-yl)-2-(trifluoromethyl)pyrimidin-4-yl)piperidin-4-yl)butanamido)ethanesulfonic acid], for which the EC50 in assay [1] (setting [3]) and in assay [2] was less than 100 nM throughout.

On to `N#Cc1ccc(CCNC(=O)[C@@H]2CCN2c2cc(N3CCC(CCNC(=O)NCCC(=O)O)CC3)nc(C(F)(F)F)n2)cc1` [Compound 268, (S)-3-(3-(2-(1-(6-(2-((4-cyanophenethyl)carbamoyl)azetidin-1-yl)-2-(trifluoromethyl)pyrimidin-4-yl)piperidin-4-yl)ethyl)ureido)propanoic acid], for which the EC50 is less than 100 nM in assay [1] (setting [3]); roughly 55 nM in assay [1] (Mus musculus, STC-1, read-out: EC50 concentration of GLP-1 stimulation in STC-1 cells); less than 100 nM in assay [2].

Consider `N#Cc1ccc(CCNC(=O)[C@@H]2CCCN2c2cc(N3CCC(CCCNC(=O)NCCS(N)(=O)=O)CC3)nc(C(F)(F)F)n2)cc1` [Compound 120, (S)-N-(4-cyanophenethyl)-1-(6-(4-(3-(3-(2-sulfamoylethyl)ureido)propyl)piperidin-1-yl)-2-(trifluoromethyl)pyrimidin-4-yl)pyrrolidine-2-carboxamide], for which the EC50 in assay [1] (setting [3]) and in assay [2] was less than 100 nM throughout.

In the case of `N#Cc1ccc(CCNC(=O)[C@@H]2CCCN2c2cc(N3CCC(CCCC(=O)NCCS(=O)(=O)O)CC3)nc(C(F)(F)F)n2)cc1` [Compound 61, (S)-2-(4-(1-(6-(2-((4-cyanophenethyl)carbamoyl)pyrrolidin-1-yl)-2-(trifluoromethyl)pyrimidin-4-yl)-piperidin-4-yl)butanamido)ethanesulfonic acid], the EC50 in assay [1] (setting [3]) and in assay [2] was less than 100 nM each time.

On to `COCC1CCN(c2cc(N3CCC[C@H]3C(=O)NCCc3ccc(C#N)cc3)nc(C(F)(F)F)n2)CC1` [Compound 24], for which the EC50 was 100 to 999 nM in assay [1] (setting [3]) and less than 100 nM in assay [2].

In the case of `O=C(CCC1CCN(c2cc(N3CC[C@H]3C(=O)NCCc3ccc(C(F)(F)F)cc3)nc(C(F)(F)F)n2)CC1)NCS(=O)(=O)O` [Compound 253, (S)-(3-(1-(2-(trifluoromethyl)-6-(2-((4-(trifluoromethyl)phenethyl)-carbamoyl)azetidin-1-yl)pyrimidin-4-yl)piperidin-4-yl)propanamido)-methanesulfonic acid], the EC50 in assay [1] (setting [3]) and in assay [2] was less than 100 nM throughout.

As for `N#Cc1ccc(CCNC(=O)[C@@H]2CCCN2c2cc(N3CCC(CCNS(=O)(=O)CCNC(=N)N)CC3)nc(C(F)(F)F)n2)cc1` [Compound 130, (S)-N-(4-cyanophenethyl)-1-(6-(4-(2-(2-guanidinoethylsulfonamido)ethyl)piperidin-1-yl)-2-(trifluoromethyl)pyrimidin-4-yl)pyrrolidine-2-carboxamide], the EC50 in assay [1] (setting [3]) and in assay [2] was less than 100 nM each time.

Turning to `N#Cc1ccc(CCNC(=O)[C@@H]2CCCN2c2cc(N3CCC(CCCC(=O)NCCS(N)(=O)=O)CC3)nc(C(F)(F)F)n2)cc1` [Compound 62, (S)-N-(4-cyanophenethyl)-1-(6-(4-(4-oxo-4-((2-sulfamoylethyl)amino)butyl)piperidin-1-yl)-2-(trifluoromethyl)pyrimidin-4-yl)pyrrolidine-2-carboxamide], the EC50 in assay [1] (setting [3]) and in assay [2] was less than 100 nM throughout.

Consider `CS(=O)(=O)NCCOCCNC(=O)NCCC1CCN(c2cc(N3CC[C@H]3C(=O)NCCc3ccc(C#N)cc3)nc(C(F)(F)F)n2)CC1` [Compound 292, (S)-N-(4-cyanophenethyl)-1-(6-(4-(2-(3-(2-(2-(methylsulfonylamino)-ethoxy)ethyl)ureido)ethyl)piperidin-1-yl)-2-(trifluoromethyl)pyrimidin-4-yl)azetidine-2-carboxamide], for which the EC50 in assay [1] (setting [3]) was 100 to 999 nM; in assay [2], less than 100 nM.

Take `N#Cc1ccc(CCNC(=O)[C@@H]2CCN2c2cc(N3CCC(CCCC(=O)O)CC3)nc(C(F)(F)F)n2)cc1` [Compound 231, (S)-4-(1-(6-(2-((4-cyanophenethyl)carbamoyl)azetidin-1-yl)-2-(trifluoromethyl)pyrimidin-4-yl)piperidin-4-yl)butanoic acid]: the EC50 in assay [1] (setting [3]) is 100 to 999 nM; in assay [2], less than 100 nM.

For the compound `N#Cc1ccc(CCNC(=O)[C@@H]2CCN2c2cc(N3CCC(CCNC(=O)NCCS(=O)(=O)O)CC3)nc(C(F)(F)F)n2)cc1` [Compound 271, (S)-2-(3-(2-(1-(6-(2-((4-cyanophenethyl)carbamoyl)azetidin-1-yl)-2-(trifluoromethyl)pyrimidin-4-yl)piperidin-4-yl)ethyl)ureido)-ethanesulfonic acid], the EC50 in assay [1] (setting [3]) and in assay [2] was less than 100 nM in each case.

Values taken from US10654834B2 (Venenum Biodesign, LLC, priority 2016, dated 2020).
